# Test results from ChEMBL document CHEMBL1139432, “Aryl sulfones as novel bradykinin B1 receptor antagonists for treatment of chronic pain” (Bioorg Med Chem Lett, 2008).
# pIC50, pKi: −log10 of the molar value.
# What was measured:
# [1] = Metabolic stability in rat liver microsomes; assay type: ADME, Microsome; settings: read-out: Stability
# [2] = Metabolic stability in human liver microsomes; assay type: ADME, Microsome; settings: read-out: Stability
# [3] = test system: Oryctolagus cuniculus; assay: Inhibition of des-Arg-Kallidin-induced hypotensive response in sc dosed rabbit; assay type: functional, organism-based; design: scale not given: the % may be the effect or the level left
# [4] = target: T1, B1 bradykinin receptor (Homo sapiens, UniProt P46663); assay: Antagonist activity at human bradykinin B1 receptor expressed in clone CHO-D-/aequorin cells by aquerin based assay; assay type: functional, cell-based
# T1 sequence (P46663 whole entry): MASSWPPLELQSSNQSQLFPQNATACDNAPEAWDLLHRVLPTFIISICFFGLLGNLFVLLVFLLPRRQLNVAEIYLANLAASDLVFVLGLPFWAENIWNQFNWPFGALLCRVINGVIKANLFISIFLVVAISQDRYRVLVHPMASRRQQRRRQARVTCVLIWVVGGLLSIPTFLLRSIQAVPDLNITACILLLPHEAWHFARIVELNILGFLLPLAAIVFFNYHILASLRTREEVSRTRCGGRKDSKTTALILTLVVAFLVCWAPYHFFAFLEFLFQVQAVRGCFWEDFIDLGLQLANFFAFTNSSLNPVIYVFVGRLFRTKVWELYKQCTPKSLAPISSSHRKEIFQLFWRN
# [5] = target: T1, B1 bradykinin receptor; assay: Displacement of [3H]DAK from human bradykinin B1 receptor expressed in clone CHO-D-/aequorin cells; assay type: cell-based
# [6] = target: T2, B1 bradykinin receptor (Oryctolagus cuniculus, UniProt P48748); assay: Antagonist activity at rabbit bradykinin B1 receptor expressed in clone CHO-D-/aequorin cells by aquerin based assay; assay type: functional, cell-based
# T2 sequence (P48748 whole entry): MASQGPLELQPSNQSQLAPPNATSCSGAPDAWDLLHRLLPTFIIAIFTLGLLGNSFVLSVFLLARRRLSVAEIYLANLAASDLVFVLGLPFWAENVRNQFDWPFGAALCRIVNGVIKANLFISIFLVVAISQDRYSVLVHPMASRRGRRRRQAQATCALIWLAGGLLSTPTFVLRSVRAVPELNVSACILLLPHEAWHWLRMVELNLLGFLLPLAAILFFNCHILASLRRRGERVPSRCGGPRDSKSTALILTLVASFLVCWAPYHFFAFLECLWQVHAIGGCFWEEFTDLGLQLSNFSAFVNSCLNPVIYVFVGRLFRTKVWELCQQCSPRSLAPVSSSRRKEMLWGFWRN
Compound,microsomal CLint [1],microsomal CLint [2],pIC50 [4],pKi [5],pIC50 [6],Activity [3]
O=C(C[C@@H](NS(=O)(=O)c1ccc2ccccc2c1)c1ccccc1)N[C@@H]1CCCc2cc(CN3CCCCC3)ccc21,572 µL/min/mg,919 µL/min/mg,,,,
O=C(C[C@@H](NS(=O)(=O)c1cccc(C(F)(F)F)c1)c1ccc(F)cc1)N[C@@H]1CCOc2cc(CN3CCCCC3)ccc21,,,,,,47%
O=C(CC(CS(=O)(=O)c1ccc2ccccc2c1)c1ccccc1)N[C@@H]1CCCc2cc(CN3CCCCC3)ccc21 (stereo not given in full),167 µL/min/mg,744 µL/min/mg,7.86,8.82,,
CO[C@H](CCS(=O)(=O)c1ccc2ccccc2c1)C(=O)N[C@@H]1CCCc2cc(CN3CCCCC3)ccc21,237 µL/min/mg,216 µL/min/mg,,,,
O=C(N[C@@H]1CCCc2cc(CN3CCCCC3)ccc21)[C@@H](O)CCS(=O)(=O)c1ccc2ccccc2c1,143 µL/min/mg,100 µL/min/mg,7.51,7.72,,
O=C(N[C@@H]1CCCc2cc(CN3CCCCC3)ccc21)[C@H](O)CCS(=O)(=O)c1ccc2ccccc2c1,50 µL/min/mg,100 µL/min/mg,7.30,7.63,,
CO[C@@H](CC(=O)N[C@@H]1CCCc2cc(CN3CCCCC3)ccc21)CS(=O)(=O)c1ccc2ccccc2c1,316 µL/min/mg,274 µL/min/mg,,,,
O=C(CCCS(=O)(=O)c1ccc2ccccc2c1)N[C@@H]1CCCc2cc(CN3CCCCC3)ccc21,100 µL/min/mg,50 µL/min/mg,,,,
O=C(C[C@@H](O)CS(=O)(=O)c1ccc2ccccc2c1)N[C@@H]1CCCc2cc(CN3CCCCC3)ccc21,,,6.97,7.00,,
O=C(C[C@H](O)CS(=O)(=O)c1ccc2ccccc2c1)N[C@@H]1CCCc2cc(CN3CCCCC3)ccc21,100 µL/min/mg,112 µL/min/mg,7.31,7.38,,

# More lines, main results first:
microsomal CLint [1],microsomal CLint [2],pIC50 [4],pKi [5],pIC50 [6],Compound,Activity [3]
50 µL/min/mg,50 µL/min/mg,,,,Cc1ccc(S(=O)(=O)C[C@@H](O)[C@@H](O)C(=O)N[C@@H]2CCCc3cc(CN4CCCCC4)ccc32)cc1,
50 µL/min/mg,319 µL/min/mg,,,,O=C(N[C@@H]1CCCc2cc(CN3CCCCC3)ccc21)[C@H](O)[C@H](O)CS(=O)(=O)c1ccccc1,
50 µL/min/mg,50 µL/min/mg,7.35,7.32,6.68,O=C(N[C@@H]1CCCc2cc(CN3CCCCC3)ccc21)[C@H](O)[C@H](O)CS(=O)(=O)c1ccc(C(F)(F)F)cc1,
50 µL/min/mg,296 µL/min/mg,8.35,7.80,7.60,CC(C)(C)c1ccc(S(=O)(=O)C[C@@H](O)[C@@H](O)C(=O)N[C@@H]2CCCc3cc(CN4CCCCC4)ccc32)cc1,
50 µL/min/mg,214 µL/min/mg,,,,O=C(N[C@@H]1CCCc2cc(CN3CCCCC3)ccc21)[C@H](O)[C@H](O)CS(=O)(=O)c1cccc(Cl)c1Cl,
193 µL/min/mg,100 µL/min/mg,7.77,7.77,7.69,O=C(N[C@@H]1CCCc2cc(CN3CCCCC3)ccc21)[C@H](O)[C@H](O)CS(=O)(=O)c1ccc(Cl)c(Cl)c1,
139 µL/min/mg,180 µL/min/mg,,,,O=C(N[C@@H]1CCCc2cc(CN3CCCCC3)ccc21)[C@H](O)[C@H](O)CS(=O)(=O)c1cccc(Cl)c1,
